Data from the NIST ThermoML archive (doi:10.1016/j.tca.2014.03.038).
Numbers after ± are expanded uncertainties.

Columns and labels:
[1] = 101.33 kPa, Liquid; for mass density: Pycnometric method; for speed of sound: multifrequency ultrasonic interferometer
[2] = xn = mol fraction of the nth substance listed; settings: 101 kPa, Liquid; for mass density: Pycnometric method; for speed of sound: multifrequency ultrasonic interferometer

CCO [ethanol]
[1]
Settings | mass density [kg/m3] | speed of sound [m/s]
298.15 K | 785.48 ± 0.23 | 1143.2 ± 0.1
308.15 K | 776.82 ± 0.26 | 1109.6 ± 0.1
318.15 K | 768.08 ± 0.29 | 1075.5 ± 0.1

CCO [ethanol] + CN(C)CCO
[2], x2 = 0
Settings | mass density [kg/m3] | speed of sound [m/s]
298.15 K | 785.48 ± 0.23 | 1143.2 ± 0.4
308.15 K | 776.82 ± 0.26 | 1109.6 ± 0.4
318.15 K | 768.08 ± 0.29 | 1075.5 ± 0.4

CO [methanol]
[1]
Settings | mass density [kg/m3] | speed of sound [m/s]
298.15 K | 786.74 ± 0.24 | 1100.7 ± 0.2
308.15 K | 777.45 ± 0.26 | 1068.2 ± 0.2
318.15 K | 768.01 ± 0.29 | 1037 ± 0.2

CN(C)CCO [2-(N,N-dimethylamino)ethanol] + CO
[2]
Settings | mass density, 298.15 K [kg/m3] | mass density, 308.15 K [kg/m3] | mass density, 318.15 K [kg/m3] | speed of sound, 298.15 K [m/s] | speed of sound, 308.15 K [m/s] | speed of sound, 318.15 K [m/s]
x1 = 0.0971 | 814.11 ± 0.26 | 806.11 ± 0.28 | 797.9 ± 0.31 | 1152.4 ± 0.5 | 1126.7 ± 0.5 | 1101.6 ± 0.5
x1 = 0.1983 | 835.29 ± 0.27 | 827.54 ± 0.3 | 819.51 ± 0.32 | 1204.7 ± 0.5 | 1180.5 ± 0.5 | 1156.2 ± 0.5
x1 = 0.2962 | 850.65 ± 0.28 | 842.65 ± 0.31 | 834.22 ± 0.34 | 1249.8 ± 0.6 | 1225.3 ± 0.6 | 1199.5 ± 0.6
x1 = 0.4039 | 862.04 ± 0.3 | 853.81 ± 0.32 | 845.26 ± 0.35 | 1290.2 ± 0.6 | 1265.5 ± 0.6 | 1238.9 ± 0.6
x1 = 0.502 | 868.4 ± 0.31 | 860.4 ± 0.34 | 852.01 ± 0.36 | 1312 ± 0.6 | 1288.1 ± 0.6 | 1261.3 ± 0.6
x1 = 0.607 | 873.13 ± 0.33 | 865.13 ± 0.35 | 856.89 ± 0.38 | 1322.4 ± 0.7 | 1299.3 ± 0.7 | 1272.9 ± 0.7
x1 = 0.7075 | 876.61 ± 0.34 | 868.67 ± 0.37 | 860.58 ± 0.39 | 1326.9 ± 0.7 | 1301.3 ± 0.7 | 1273.6 ± 0.7
x1 = 0.7999 | 879.06 ± 0.36 | 871.15 ± 0.38 | 862.98 ± 0.41 | 1330.6 ± 0.8 | 1303.1 ± 0.8 | 1273.9 ± 0.8
x1 = 0.9015 | 881.19 ± 0.38 | 873.28 ± 0.4 | 865.23 ± 0.43 | 1335 ± 0.8 | 1304.2 ± 0.8 | 1274 ± 0.8
x1 = 1 | 883.34 ± 0.4 | 874.99 ± 0.42 | 866.37 ± 0.44 | 1344.4 ± 0.9 | 1309.1 ± 0.9 | 1274.1 ± 0.9
